In PMC9600394, “Efficient Synthesis with Green Chemistry Approach of Novel Pharmacophores of Imidazole-Based Hybrids for Tumor Treatment: Mechanistic Insights from In Situ to In Silico” (Cancers, 2022):
Like-named read-outs stand apart in the source and are kept apart here.

Assays:
[1] = MTT assay in normal breast cell line MCF-10A; settings: human
Protocol: (§1) This cell line is ER, PR, and E-cadherin negative, and it lacks the growth factor receptor HER2. […] The normal human breast cell line (MCF-10A) was used as a control in the study. Cells were cultured in DMEM supplemented with 10% FBS and 1% antibiotics (100 U/mL penicillin). […] After 48 h of incubation, 20 μL of MTT solution (5 mg/mL) was pipetted into each well and incubated for another 4 h. The medium was later discarded, and the formazan precipitate was dissolved in DMSO. The absorbance of the mixtures was determined by a microplate reader at 570 nm. All the experiments were performed in triplicate, and the cytotoxicity was expressed as a percentage of cell viability and compared with untreated control cells [33]. % Viability=Absorbance of sample/Absorbance of control×100
(§2) The dose–response and IC50 values were calculated by IBM SPSS Statistics 26 software.
(§3) Simultaneously, the normal human breast epithelial cell line (MCF-10A) was used as a positive control. The MTT [3-(4,5-dimethylthiazol-2-yl)-2,5-diphenyltetrazolium bromide] assay was used to determine the decrease in cancer cell viability induced by the synthesized hybrids.

MCF-10A = experiment: MTT assay in normal breast cell line MCF-10A; settings: for inhibition at 100 µM / IC50: Homo sapiens, MCF-10A, 48 h; for inhibition at 100 µM: read-out: MCF-10A %Inhibition; for IC50: read-out: MCF-10A IC50
Protocol: as §1, §2, §3

MDA-MB-231 = experiment: MTT assay in breast cancer cell line MDA-MB-231; settings: for inhibition at 100 µM: read-out: MDA-MB-231 %Inhibition; for viability at 100 µM: read-out: MDA-MB-231 %Viability
Protocol: as §1, §2, §3

hCA-II [2] = biological target: T1, hCA-II (Homo sapiens, UniProt P00918); experiment: Enzyme kinetic (mechanistic) studies on hCA-II; settings: for Type of Inhibition (hCA-II): Lineweaver–Burk / Dixon plots; for Vmaxapp (hCA-II): maximum velocity of the enzyme in the presence of inhibitors
Protocol: In vitro inhibition of human CA (CA-II, and CA-IX) was performed in 96-well plate. Each well of the 96-well plate comprised 20 µL of the test compound (0.5 mM), 20 µL of the purified enzyme (0.1 mg/mL), 140 µL of the assay buffer (HEPES–tris, 20 mM), and 20 µL of the substrate (p-Nitrophenyl acetate; prepared in methanol), making a final volume of 200 µL. The assay procedure started with the incubation of the test compound, desired enzyme, and 140 µL of buffer for 15 min. […] All the in vitro testing results, e.g., percent inhibition, and the IC50 values were analyzed by EZ-Fit, which is a curve-fitting enzyme kinetics program (Perrella Scientific Inc., Amherst, MA, USA). All kinetic graphs were plotted by GraFit program (Horley, UK). Different parameters and their values, such as the values of intercepts, slopes, correlation coefficients, and their standard error means (SEMs), were calculated by the nonlinear regression analysis using the same program (GraFit program).
Certain parameters of the assay were changed in order to determine the mode of inhibition of compounds against specific enzymes.

hCA-II [3] = biological target: T1, hCA-II; experiment: In vitro inhibition of human CA-II (p-nitrophenyl acetate, 96-well plate); format: biochemical; settings: for Inhibitory activity for hCA-II in words: compared to acetazolamide; for hCA-II IC50 ± SEM: unit not given
hCA-IX [4] = biological target: T2, hCA-IX (Homo sapiens, UniProt Q16790); experiment: In vitro inhibition of human CA-IX (p-nitrophenyl acetate, 96-well plate); format: biochemical; settings: for IC50 / hCA-IX IC50 ± SEM: purified enzyme, substrate p-nitrophenyl acetate, 25 °C, µM from b1; for IC50: unit inferred, read-out: hCA-IX IC50 ± SEM; for hCA-IX IC50 ± SEM: unit not given; for Selectivity / specificity for hCA-IX (in words): hCA-IX versus hCA-II
hCA-IX [5] = biological target: T2, hCA-IX; experiment: Enzyme kinetic (mechanistic) studies on hCA-IX; format: biochemical; settings: for Type of Inhibition (hCA-IX): Lineweaver–Burk / Dixon plots; for Kmapp (hCA-IX): Michaelis–Menten constant in the presence of inhibitors; for Vmaxapp (hCA-IX): maximum velocity of the enzyme in the presence of inhibitors
[6] = Homo sapiens, MDA-MB-231, 48 h, read-out: MDA-MB-231 IC50, 48 h, MTT
[7] = purified enzyme, substrate p-nitrophenyl acetate, 25 °C, µM from b1
[8] = read-out: MDA-MB-231 IC50, 48 h, MTT

Cc1ncc(C2=C(O)CCCC2=O)n1CCO [Compound 1, 3-hydroxy-2-(1-(2-hydroxyethyl)-2-methyl-1H-imidazol-5-yl) cyclohex-2-en-1-one]
viability at 48 h, 100 µM ([1]; MCF-10A normal breast epithelial cells): 86.8% | inhibition at 100 µM (MCF-10A): 13.2% | IC50 (MCF-10A): > 100 µM | melting point: 186 to 190 °C | inhibition at 100 µM (MDA-MB-231; Homo sapiens, MDA-MB-231, 48 h): 51.4% | viability at 100 µM (MDA-MB-231; Homo sapiens, MDA-MB-231, 48 h): 48.6% | IC50 (MDA-MB-231; [6]): 96 µM | Ki (hCA-II [2]): 9.14 ± 0.08 µM | Type of Inhibition (hCA-II) (hCA-II [2]): competitive inhibition | Vmaxapp (hCA-II) (hCA-II [2]): 19.32 | Inhibitory activity for hCA-II in words (hCA-II [3]): potent inhibitory activity | IC50 (hCA-II [3]; purified enzyme, substrate p-nitrophenyl acetate, 25 °C, unit inferred, µM from b1, read-out: hCA-II IC50 ± SEM): 11.6 ± 0.2 µM | Inhibitory activity for hCA-IX in words (hCA-IX [4]; compared to the standard acetazolamide): comparatively weak activity | IC50 (hCA-IX [4]): 23 ± 0.5 µM

Cc1ncc(-c2c(O)[nH]c(=O)[nH]c2=O)[nH]1 [Compound 3, 6-hydroxy-5-(2-methyl-1H-imidazol-5-yl) pyrimidine-2,4(1H,3H)-dione]
viability at 48 h, 100 µM [1]: 85.7% | inhibition at 100 µM (MCF-10A): 14.3% | IC50 (MCF-10A): > 100 µM | melting point: 215 °C (dec.) | inhibition at 100 µM (MDA-MB-231; Homo sapiens, MDA-MB-231, 48 h): 61.2% | viability at 100 µM (MDA-MB-231; Homo sapiens, MDA-MB-231, 48 h): 38.8% | IC50 (MDA-MB-231; [6]): 76.1 µM | IC50 (hCA-II [3]): 30.7 ± 3.4 µM | Inhibitory activity for hCA-II in words (hCA-II [3]): weak activity | Ki (hCA-IX [5]): 8.01 ± 0.01 µM | Type of Inhibition (hCA-IX) (hCA-IX [5]): competitive inhibition | Kmapp (hCA-IX) (hCA-IX [5]): 0.38 | Vmaxapp (hCA-IX) (hCA-IX [5]): 23.01 | IC50 (hCA-IX [4]): 10.9 ± 0.8 µM

Cc1ncc(-c2c(O)[nH]c(=S)[nH]c2=O)[nH]1 [Compound 4, 6-hydroxy-5-(2-methyl-1H-imidazol-5-yl)-2-thioxo-2,3-dihydropyrimidin-4(1H)-one]
viability at 48 h, 100 µM [1]: 82.1% | inhibition at 100 µM (MCF-10A): 17.9% | IC50 (MCF-10A): > 100 µM | inhibition at 100 µM (MDA-MB-231; Homo sapiens, MDA-MB-231, 48 h): 60.5% | viability at 100 µM (MDA-MB-231; Homo sapiens, MDA-MB-231, 48 h): 39.5% | IC50 (MDA-MB-231; [6]): 75.7 µM | IC50 (hCA-II [3]): 31.1 ± 1.3 µM | Inhibitory activity for hCA-II in words (hCA-II [3]): weak activity | Ki (hCA-IX [5]): 15.02 ± 0.04 µM | Type of Inhibition (hCA-IX) (hCA-IX [5]): competitive inhibition | Kmapp (hCA-IX) (hCA-IX [5]): 0.43 | Vmaxapp (hCA-IX) (hCA-IX [5]): 23.01 | IC50 (hCA-IX [4]): 17.1 ± 0.6 µM

Cc1ncc(-c2c(O)[nH]c(=O)[nH]c2=O)n1CCOC(=O)c1ccccc1 [Compound 5, 2-(5-(6-hydroxy-2,4-dioxo-1,2,3,4-tetrahydropyrimidin-5-yl)-2-methyl-1H-imidazol-1-yl) ethyl benzoate]
viability at 48 h, 100 µM [1]: 79.5% | inhibition at 100 µM (MCF-10A): 20.5% | IC50 (MCF-10A): > 100 µM | Toxicity to normal breast cells (MCF-10A) in words (MCF-10A; MTT): no toxicity | inhibition at 100 µM (MDA-MB-231; Homo sapiens, MDA-MB-231, 48 h): 82.1% | viability at 100 µM (MDA-MB-231; Homo sapiens, MDA-MB-231, 48 h): 17.9% | IC50 (MDA-MB-231; [6]): 53.6 µM | Anticancer/cytotoxic activity in MDA-MB-231 in words (MDA-MB-231; MTT): excellent anticancer/cytotoxic activity | hCA-II IC50 ± SEM (hCA-II [3]; [7]): Inactive | hCA-IX IC50 ± SEM (hCA-IX [4]): Inactive

Cc1ncc(-c2c(O)n(C)c(=O)n(C)c2=O)[nH]1 [Compound 6, 6-hydroxy-1,3-dimethyl-5-(2-methyl-1H-imidazol-5-yl) pyrimidine-2,4(1H,3H)-dione]
viability at 48 h, 100 µM [1]: 86.8% | inhibition at 100 µM (MCF-10A): 13.2% | IC50 (MCF-10A): > 100 µM | inhibition at 100 µM (MDA-MB-231; Homo sapiens, MDA-MB-231, 48 h): 58.4% | viability at 100 µM (MDA-MB-231; Homo sapiens, MDA-MB-231, 48 h): 41.6% | IC50 (MDA-MB-231; [6]): 79.4 µM | hCA-II IC50 ± SEM (hCA-II [3]; [7]): Inactive | hCA-IX IC50 ± SEM (hCA-IX [4]): Inactive

Cc1ncc(-c2c(O)[nH]c(=S)[nH]c2=O)n1CCOC(=O)c1ccccc1 [Compound 7, 2-(5-(6-hydroxy-4-oxo-2-thioxo-1,2,3,4-tetrahydropyrimidin-5-yl)-2-methyl-1H-imidazol-1-yl) ethyl benzoate]
viability at 48 h, 100 µM [1]: 86.8% | inhibition at 100 µM (MCF-10A): 13.2% | IC50 (MCF-10A): > 100 µM | melting point: 225 to 230 °C | inhibition at 100 µM (MDA-MB-231; Homo sapiens, MDA-MB-231, 48 h): 69.2% | viability at 100 µM (MDA-MB-231; Homo sapiens, MDA-MB-231, 48 h): 30.8% | IC50 (MDA-MB-231; [6]): 64 µM | IC50 (MDA-MB-231; [8]): 64 µM | hCA-II IC50 ± SEM (hCA-II [3]; [7]): Inactive | Ki (hCA-IX [5]): 7.32 ± 0.02 µM | Type of Inhibition (hCA-IX) (hCA-IX [5]): competitive inhibition | Vmaxapp (hCA-IX) (hCA-IX [5]): 23.01 | Inhibitory activity for hCA-IX in words (hCA-IX [4]): strong inhibitory activity | Selectivity / specificity for hCA-IX (in words) (hCA-IX [4]): selective inhibitors of hCA-IX | IC50 (hCA-IX [4]): 9.6 ± 0.2 µM

Cc1ncc(-c2c(O)[nH]c(=O)[nH]c2=O)n1CCO [Compound 8, 6-hydroxy-5-(1-(2-hydroxyethyl)-2-methyl-1H-imidazol-5-yl) pyrimidine-2,4 (1H, 3H)-dione]
viability at 48 h, 100 µM [1]: 84.5% | inhibition at 100 µM (MCF-10A): 15.5% | IC50 (MCF-10A): > 100 µM | inhibition at 100 µM (MDA-MB-231; Homo sapiens, MDA-MB-231, 48 h): 77.8% | viability at 100 µM (MDA-MB-231; Homo sapiens, MDA-MB-231, 48 h): 22.2% | IC50 (MDA-MB-231; [6]): 55.6 µM | hCA-II IC50 ± SEM (hCA-II [3]; [7]): Inactive | Inhibitory activity for hCA-IX in words (hCA-IX [4]): comparatively weak activity | Selectivity / specificity for hCA-IX (in words) (hCA-IX [4]): selective inhibitors of hCA-IX | IC50 (hCA-IX [4]): 32.2 ± 1 µM

Cc1ncc(-c2c(O)[nH]c(=S)[nH]c2=O)n1CCO [Compound 9, 6-hydroxy-5-(1-(2-hydroxyethyl)-2-methyl-1H-imidazol-5-yl)-2-thioxo-2,3-dihydropyrimidin-4(1H)-one]
viability at 48 h, 100 µM [1]: 84.5% | inhibition at 100 µM (MCF-10A): 13.2% | IC50 (MCF-10A): > 100 µM | inhibition at 100 µM (MDA-MB-231; Homo sapiens, MDA-MB-231, 48 h): 73.5% | viability at 100 µM (MDA-MB-231; Homo sapiens, MDA-MB-231, 48 h): 26.5% | IC50 (MDA-MB-231; [6]): 58.6 µM | IC50 (MDA-MB-231; [8]): 58.6 µM | IC50 (hCA-II [3]): 27.5 ± 1.3 µM | Inhibitory activity for hCA-II in words (hCA-II [3]): weak activity | Ki (hCA-IX [5]): 17.02 ± 0.02 µM | Type of Inhibition (hCA-IX) (hCA-IX [5]): competitive inhibition | Kmapp (hCA-IX) (hCA-IX [5]): 0.47 | Vmaxapp (hCA-IX) (hCA-IX [5]): 23.01 | IC50 (hCA-IX [4]): 19.9 ± 0.8 µM

Cc1ncc(-c2c(O)n(C)c(=O)n(C)c2=O)n1CCO [Compound 10, 6-hydroxy-5-(1-(2-hydroxyethyl)-2-methyl-1H-imidazol-5-yl)-1,3-dimethylpyrimidine-2,4(1H,3H)-dione]
viability at 48 h, 100 µM [1]: 84.9% | inhibition at 100 µM (MCF-10A): 15.1% | IC50 (MCF-10A): > 100 µM | melting point: 163 to 165 °C | inhibition at 100 µM (MDA-MB-231; Homo sapiens, MDA-MB-231, 48 h): 75.5% | viability at 100 µM (MDA-MB-231; Homo sapiens, MDA-MB-231, 48 h): 24.5% | IC50 (MDA-MB-231; [6]): 60.9 µM | hCA-II IC50 ± SEM (hCA-II [3]; [7]): Inactive | Ki (hCA-IX [5]): 13.24 ± 0.03 µM | Type of Inhibition (hCA-IX) (hCA-IX [5]): competitive inhibition | Kmapp (hCA-IX) (hCA-IX [5]): 0.40 | Vmaxapp (hCA-IX) (hCA-IX [5]): 23.01 | Selectivity / specificity for hCA-IX (in words) (hCA-IX [4]): selective inhibitors of hCA-IX | IC50 (hCA-IX [4]): 14.8 ± 0.1 µM

Cc1ncc(-c2c(O)n(C)c(=O)n(C)c2=O)n1CCOC(=O)c1ccccc1 [Compound 11, 2-(5-(6-hydroxy-1,3-dimethyl-2,4-dioxo-1,2,3,4-tetrahydropyrimidin-5-yl)-2-methyl-1H-imidazol-1-yl) ethyl benzoate]
viability at 48 h, 100 µM [1]: 87.9% | inhibition at 100 µM (MCF-10A): 12.1% | IC50 (MCF-10A): > 100 µM | melting point: 180 to 185 °C | inhibition at 100 µM (MDA-MB-231; Homo sapiens, MDA-MB-231, 48 h): 68.2% | viability at 100 µM (MDA-MB-231; Homo sapiens, MDA-MB-231, 48 h): 31.8% | IC50 (MDA-MB-231; [6]): 63.1 µM | IC50 (MDA-MB-231; [8]): 63.1 µM | Ki (hCA-II [2]): 12.58 ± 0.04 µM | Type of Inhibition (hCA-II) (hCA-II [2]): competitive inhibition | Kmapp (hCA-II) (hCA-II [2]; Michaelis–Menten constant in the presence of inhibitors): 0.14 | Vmaxapp (hCA-II) (hCA-II [2]): 19.32 | IC50 (hCA-II [3]): 15.3 ± 0.3 µM | Inhibitory activity for hCA-II in words (hCA-II [3]): potent inhibitory activity | Ki (hCA-IX [5]): 8.32 ± 0.05 µM | Type of Inhibition (hCA-IX) (hCA-IX [5]): competitive inhibition | Kmapp (hCA-IX) (hCA-IX [5]): 0.42 | Vmaxapp (hCA-IX) (hCA-IX [5]): 23.01 | Selectivity / specificity for hCA-IX (in words) (hCA-IX [4]): selective inhibitors of hCA-IX | IC50 (hCA-IX [4]): 11.9 ± 0.3 µM
